Data on two compounds can be found in ChEMBL document CHEMBL1201862, “PubChem BioAssay data set” (2004).

What is called IC50 is the concentration at which inhibition is half-maximal.

The experiment addresses T1, Exodeoxyribonuclease V (Escherichia coli (strain K12), UniProt P04993+P07648+P08394).
T1 sequence (P04993 whole entry): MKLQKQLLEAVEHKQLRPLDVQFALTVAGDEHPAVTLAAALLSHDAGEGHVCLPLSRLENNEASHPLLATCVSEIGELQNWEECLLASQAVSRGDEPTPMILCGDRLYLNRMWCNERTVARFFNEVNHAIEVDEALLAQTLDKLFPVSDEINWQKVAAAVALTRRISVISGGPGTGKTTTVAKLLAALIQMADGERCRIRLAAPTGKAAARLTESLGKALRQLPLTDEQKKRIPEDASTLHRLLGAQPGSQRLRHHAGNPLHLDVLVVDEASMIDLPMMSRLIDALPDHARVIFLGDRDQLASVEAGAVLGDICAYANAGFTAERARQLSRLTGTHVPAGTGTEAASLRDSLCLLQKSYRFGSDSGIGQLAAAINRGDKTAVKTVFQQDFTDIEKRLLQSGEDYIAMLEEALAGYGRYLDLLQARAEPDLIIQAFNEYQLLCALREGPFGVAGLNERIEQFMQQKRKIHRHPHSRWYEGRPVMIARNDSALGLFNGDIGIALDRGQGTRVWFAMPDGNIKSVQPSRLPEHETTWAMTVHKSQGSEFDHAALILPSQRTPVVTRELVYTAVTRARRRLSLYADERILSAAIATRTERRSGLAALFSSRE
T1 sequence (P07648 whole entry): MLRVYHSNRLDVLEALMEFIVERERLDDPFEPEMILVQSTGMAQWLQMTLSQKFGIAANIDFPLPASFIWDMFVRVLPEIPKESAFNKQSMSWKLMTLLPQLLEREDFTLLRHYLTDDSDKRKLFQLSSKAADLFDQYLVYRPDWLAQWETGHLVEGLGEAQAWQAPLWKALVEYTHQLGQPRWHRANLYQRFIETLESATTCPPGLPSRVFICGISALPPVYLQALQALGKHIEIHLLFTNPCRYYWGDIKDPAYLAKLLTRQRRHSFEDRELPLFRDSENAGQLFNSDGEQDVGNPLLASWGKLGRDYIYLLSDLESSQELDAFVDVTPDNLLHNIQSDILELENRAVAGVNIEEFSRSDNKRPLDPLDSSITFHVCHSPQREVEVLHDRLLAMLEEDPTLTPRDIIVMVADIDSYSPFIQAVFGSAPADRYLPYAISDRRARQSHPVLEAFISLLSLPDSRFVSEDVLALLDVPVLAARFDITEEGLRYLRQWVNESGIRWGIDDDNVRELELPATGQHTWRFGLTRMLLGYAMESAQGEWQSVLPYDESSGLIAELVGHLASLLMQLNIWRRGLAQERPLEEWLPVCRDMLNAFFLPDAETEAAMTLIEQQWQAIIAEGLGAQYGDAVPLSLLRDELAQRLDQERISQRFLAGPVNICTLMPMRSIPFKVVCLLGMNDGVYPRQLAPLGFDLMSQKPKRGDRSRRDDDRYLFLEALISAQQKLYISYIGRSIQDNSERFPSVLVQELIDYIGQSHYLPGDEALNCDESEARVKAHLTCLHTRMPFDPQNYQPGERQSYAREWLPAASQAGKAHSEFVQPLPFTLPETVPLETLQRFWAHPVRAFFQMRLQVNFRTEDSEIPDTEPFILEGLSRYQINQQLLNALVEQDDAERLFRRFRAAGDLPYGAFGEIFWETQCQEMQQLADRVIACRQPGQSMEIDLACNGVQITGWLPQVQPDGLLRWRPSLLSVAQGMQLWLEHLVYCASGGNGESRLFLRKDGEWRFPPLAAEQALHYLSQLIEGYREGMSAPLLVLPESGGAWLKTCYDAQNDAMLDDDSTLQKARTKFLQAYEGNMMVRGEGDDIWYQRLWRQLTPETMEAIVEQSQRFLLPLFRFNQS
T1 sequence (P08394 whole entry): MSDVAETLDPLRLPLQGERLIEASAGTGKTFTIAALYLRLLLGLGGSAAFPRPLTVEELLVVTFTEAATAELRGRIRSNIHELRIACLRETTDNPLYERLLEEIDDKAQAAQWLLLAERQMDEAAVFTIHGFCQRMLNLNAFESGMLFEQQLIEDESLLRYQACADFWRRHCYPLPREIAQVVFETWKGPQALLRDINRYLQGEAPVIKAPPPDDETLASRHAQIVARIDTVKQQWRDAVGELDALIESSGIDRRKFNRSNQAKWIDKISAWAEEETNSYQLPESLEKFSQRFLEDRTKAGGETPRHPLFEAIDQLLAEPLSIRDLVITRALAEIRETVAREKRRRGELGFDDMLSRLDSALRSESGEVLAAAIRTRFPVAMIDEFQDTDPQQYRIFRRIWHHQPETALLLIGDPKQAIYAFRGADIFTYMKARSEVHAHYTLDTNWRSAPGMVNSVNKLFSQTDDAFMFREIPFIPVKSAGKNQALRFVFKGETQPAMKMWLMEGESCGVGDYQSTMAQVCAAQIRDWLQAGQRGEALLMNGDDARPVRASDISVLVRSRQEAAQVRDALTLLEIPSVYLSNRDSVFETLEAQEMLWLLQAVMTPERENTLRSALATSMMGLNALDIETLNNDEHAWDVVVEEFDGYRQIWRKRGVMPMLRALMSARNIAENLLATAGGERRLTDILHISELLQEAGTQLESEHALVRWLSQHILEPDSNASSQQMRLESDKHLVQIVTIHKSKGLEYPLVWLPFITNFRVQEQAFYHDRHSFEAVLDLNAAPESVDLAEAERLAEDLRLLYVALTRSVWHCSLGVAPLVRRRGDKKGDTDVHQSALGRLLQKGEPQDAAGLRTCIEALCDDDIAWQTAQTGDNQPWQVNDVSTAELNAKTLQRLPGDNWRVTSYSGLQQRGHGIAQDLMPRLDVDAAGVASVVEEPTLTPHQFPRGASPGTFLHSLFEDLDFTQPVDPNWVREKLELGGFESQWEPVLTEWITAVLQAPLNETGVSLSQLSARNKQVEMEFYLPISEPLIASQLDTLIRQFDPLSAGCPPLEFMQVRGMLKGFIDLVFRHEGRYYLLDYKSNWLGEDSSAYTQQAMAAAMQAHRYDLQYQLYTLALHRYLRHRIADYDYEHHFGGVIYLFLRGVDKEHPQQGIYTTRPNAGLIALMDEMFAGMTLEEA
In words: RecBCD inhibition via phage-restricted bacterial growth – absorbance, V66 E. coli, mutant T4 phage, counter-screen for AddAB inhibitor project, dose response (AID 492957). It counts as functional, cell-based, Escherichia coli str. K-12 substr. MG1655. Background: A counterscreen serves to expose hits that act by an unwanted route or on another target.

Molecules are shown by their SMILES. Activity calls are given as the source filed them. The rule behind the calls is not given here.

Take `O=C(CC(O)(C(F)(F)F)C(F)(F)F)Nc1ccc(Cl)c(Cl)c1`: the IC50 is 44 µM (inactive). Consider `O=C(CNc1cccc2ccccc12)N/N=C/c1ccc([N+](=O)[O-])o1`, for which the IC50 was > 118 µM (inactive).
